Reference: patent publication EP1785417A2, “Novel non-psychotropic cannabinoids” (priority 2000, dated 2001)
Read-outs that look alike come from different tables or passages of the source.

Experiments:
[1] = Body weight gain during staircase testing after transient MCAo; assay type: in vivo, rats; conditions: compared to base line
Protocol: Animals were allowed to recover from the surgery for five days. The mild food deprivation was re-employed during the days following the ischemic insult. They were tested in the staircase box using the above method for 9-12 days. Animals were weighed twice a week during this period.
Animals were kept under mild food deprivation during the staircase testing (except during weekends). Under these conditions, the following results were observed: • Sham and PRS-211,095 10 mg/kg treated rats gained the maximal body weight (15 and 17% respectively compared to base line). […] These differences were not statistically different.

[2] = system: Nitric Oxide Synthase (NOS); assay: Inhibition of nitric oxide synthase (nitrite fluorimetric assay, LPS-stimulated macrophage cultures); assay type: cell-based; conditions: LPS-stimulated macrophages
From the text: (§1) Evaluation of the therapeutic effects of the novel PRS-211 compounds has now been carried out in a series of experimental systems to support the utility of these drugs as neuroprotectants, anti-inflammatory agents and anti-oxidative agents. These effects have been evaluated both in vitro and in vivo, and have been corroborated utilizing the following systems: • (a) Binding to the NMDA receptor linked channel: Non competitive antagonists of NMDA, the primary example of which is the compound MK-801, bind to a site within the NMDA receptor channel thus preventing the activation of the receptor-channel complex and the consequent neurotoxicity. The ability of various compounds to compete with the binding of tritium labeled MK-801 to brain membranes is considered a measure of their potency as NMDA non-competitive antagonists. • (b) Inhibition of prostaglandin production: The inhibitory effect of the new derivatives of Dexanabinol on prostaglandin synthesis is evaluated in macrophage cell cultures following LPS exposure to induce the inflammatory response. These assays are an indication of the anti-inflammatory activity of the individual analogs. • (c) Inhibition of Tumor Necrosis Factor Alpha: Specific aspects of the inflammatory response cascade are mediated by the cytokine TNFα. Inhibition of TNFα production and/or inhibition of TNFα release by the new analogs are assayed in macrophage cell cultures activated with LPS. This serves as another indication of the general anti-inflammatory potential of the novel compounds. • (d) Nitric Oxide Assay: As one aspect of the anti-oxidative potential of the novel analogs they were tested for their ability to inhibit the enzyme nitric oxide synthase (NOS). This assay can also serve as another indication of the anti-inflammatory cascade, as well as the anti-oxidative mechanisms. • (e) Ear Edema model: The anti-inflammatory activity of the new analogs is screened using an ear edema model in mice. This test system utilizes Croton oil or Arachidonic acid as inflammation inducers. The ability of the test compounds to prevent or diminish the inflammatory response to these stimulants is indicative of their systemic anti-inflammatory capability. • (f) Improved clinical outcome after closed head injury in rats: Severe head injury is associated with high mortality and severe neurological impairment. Animals subjected to head trauma in a controlled fashion serve as models in which to test drugs of therapeutic potential. Test compounds can be evaluated both for improved clinical outcome and for reduction of edema induced by closed head injury. The ability of compounds to reduce the severity of neurological symptoms and to reduce brain edema is considered a measure of their potency in reducing brain damage. • (g) Transient Middle cerebral artery occlusion (MCAo): The middle cerebral artery is the cerebral blood vessel most susceptible to stroke in humans. In animals, coagulation, permanent ligation or permanent placement of an occluding thread in the artery produces a permanent focal stroke affecting the MCA territory. Transient ligation or occlusion results in transient focal stroke. Both transient and permanent focal strokes result in varying degrees of edema and infarction in the affected brain regions. The ability of compounds to reduce the volumes of edema and infarction is considered a measure of their potential as anti-stroke treatment. • (h) Optic Nerve Crush: Application of mechanical pressure to the rat optical nerve results in crush injury of the axons, which is accompanied by immediate changes in oxidative metabolism and delayed axonal death and blindness. […]

ear edema model in mice = assay: Ear edema model; assay type: in vivo; conditions: Mus musculus, Croton oil (CO) as inducer, IP
From the text: as §1

TNFα = assay: Inhibition of TNFα in LPS-stimulated macrophage cell cultures (ELISA); assay type: cell-based; conditions: LPS-stimulated macrophages
From the text: as §1

NMDA receptor = assay: Radioligand binding: displacement of [3H]MK-801 from rat forebrain membranes; conditions: for NMDA receptor binding / affinity: MK-801 binding to membranes
From the text: as §1

[3] = [3H]MK-801 binding, text to Figure 2, read-out: mean IC50
[4] = displacement of [3H]MK-801, rat forebrain membranes, read-out: NMDA BINDING IC50

With `CCCCCCC(C)(C)c1cc(O)c2c(c1)OC(C)(C)[C@H]1CC=C(Cn3ccnc3)C[C@H]21` (single isomer, unassigned) [211,095-000] the body weight gain ([1]; 0.5 mg/kg) was “did not gain weight”, the body weight gain ([1]; 2.5 mg/kg) was “did not gain weight” and the body weight gain ([1]; 5 mg/kg) was 4%. The body weight gain ([1]; 10 mg/kg) was 17%, the inhibition at 10 µM [2] was 14% and the ED50 (ear edema model in mice) was 29 µmol/kg. The inhibition at 10 µM (TNFα) was 11%, the “NMDA receptor binding / affinity” value (NMDA receptor) was “relatively high affinity” and the IC50 (NMDA receptor; [3]) was 2.5 µM. It also gave an IC50 (NMDA receptor; [4]) of 2.5 µM.
Compound `CCCCCCC(C)(C)c1cc(O)c2c(c1)OC(C)(C)[C@H]1CC=C(CO)C[C@H]21` [211,007-000 HU-211, 1,1 dimethyl heptyl-(3 S,4S)-7-hydroxy-Δ^6-tetrahydrocannabinol, reference compound] has a body weight gain ([1]; 5 mg/kg) of 7%, an inhibition at 10 µM [2] of 20% and an ED50 (ear edema model in mice) of 25 µmol/kg. For the same compound, the inhibition at 10 µM (TNFα) was 33%, the “NMDA receptor binding / affinity” value (NMDA receptor) was “competes with the binding of MK-801” and the IC50 (NMDA receptor; [3]) was 10 µM. The IC50 (NMDA receptor; [4]) was 10 µM and the Ki (NMDA receptor; inhibition of [3H]MK-801 binding, read-out: inhibition constant (KI)) was 11 ± 1.3 µM.
